The values that follow come from publication PMC6200766, “Fisetin targets YB-1/RSK axis independent of its effect on ERK signaling: insights from in vitro and in vivo melanoma models” (Scientific Reports, 2018).

Where two headings read alike, the source gives them in different places.

The test system of one assay is YB-1. Briefly: Western blot/immunocytochemistry of YB-1 in melanoma cells. Format: cell-based, human. An excerpt: WM35 and A375 cells were obtained from ATCC (Manassas, VA), NCI/ADR-Res cells from NCI (Developmental Therapeutics Program, Frederick, MD) while 451Lu cells were provided by Dr. Meenhard Herlyn (Wistar Institute, PA). Authentication report was provided by ATCC and NCI for post-freeze viability, growth properties, morphology, mycoplasma contamination, species determination (cytochrome c oxidase I assay and STR analysis), sterility test and human pathogenic virus testing. Cells were frozen in aliquots in liquid nitrogen and cultured within six months. 451Lu cells were authenticated upon receipt using STR analysis and all cell lines are regularly tested for mycoplasma contamination using MycoAlert Mycoplasma Detection Kit from Lonza (Basel, Switzerland). WM35, A375 cells were cultured in DMEM, NCI/ADR-Res in RPMI and 451Lu in MEM with 10% FBS and 1% penicillin-streptomycin, at 37 °C with 5% CO2 in a humid environment. […]
For immunohistochemistry, sections from melanoma constructs, fixed in 10% formalin were deparaffinized and rehydrated in xylene and a graded series of ethanol and blocked in 2% goat serum/PBS for 30 min. After incubation with specific primary antibody overnight and biotinylated secondary antibody for 1 h, slides were counterstained with hematoxylin and immunoreactive complexes were detected using 3,3′-diaminobenzidene (Dako Corp., CA). […]
A general note: In western blotting, separated proteins are transferred to a membrane and probed.

For another assay, the system named is 451Lu melanoma cells. Put plainly: 451Lu melanoma xenograft in athymic nude mice. The class given is in vivo. Conditions: day 35; fisetin 1 mg/animal i.p. thrice weekly; vemurafenib 2 mg/animal oral gavage 5 days/week; control 1179.7 mm^3. How it is done: Athymic (nu/nu) female nude mice (Harlan, Madison, WI), 4–5 weeks old, were housed under pathogen-free conditions, in the University of Wisconsin Animal Resource Facility, with a 12-hour light/12-hour dark schedule and fed an autoclaved diet ad libitum. All animal experiments were approved by and carried out according to Institutional Animal Care and Use Committee guidelines, University of Wisconsin-Madison, protocol # M005212. Briefly, 1 × 10^6 451Lu cells were injected s/c into each flank of 18 mice randomly divided into 3 groups. The first group received intraperitoneal injection of fisetin 40 mg/kg b.wt. (1 mg/animal) thrice weekly, the second group received vemurafenib by oral gavage 80 mg/kg b.wt. (2 mg/animal) dissolved in DMSO, 5 days/week, while the third group served as the DMSO treated control group. Mice weight and tumor volumes were recorded twice weekly. The animals were sacrificed when tumors reached a volume of 1200 mm^3 in the control group. Samples were collected and stored at −80 °C until further analysis.

In a further assay the test system is NCI/ADR-Res cells. Briefly: MTT cell viability. The class given is cell-based, human. Conditions: NCI/ADR-Res ovarian tumor cells. How it is done: Cells seeded in 24-well plates were treated at 70% confluence with/without fisetin and/or vemurafenib for 24 hours. Cell viability was determined by MTT assay as described.
The target in assay [1] is T1, RSK3 (Homo sapiens, UniProt Q15349). Briefly: Radiometric in vitro kinase activity assay (Reaction Biology). Format: biochemical. More on the design: purchased Reaction Biology Corporation (Malvern, PA), contract assay. Conditions: 10-dose, 3-fold serial dilution from 100 μM; 30 μM ATP; read-out: IC50 (M), kinase activity inhibition RSK3.
Target sequence in this assay (Q15349 whole entry): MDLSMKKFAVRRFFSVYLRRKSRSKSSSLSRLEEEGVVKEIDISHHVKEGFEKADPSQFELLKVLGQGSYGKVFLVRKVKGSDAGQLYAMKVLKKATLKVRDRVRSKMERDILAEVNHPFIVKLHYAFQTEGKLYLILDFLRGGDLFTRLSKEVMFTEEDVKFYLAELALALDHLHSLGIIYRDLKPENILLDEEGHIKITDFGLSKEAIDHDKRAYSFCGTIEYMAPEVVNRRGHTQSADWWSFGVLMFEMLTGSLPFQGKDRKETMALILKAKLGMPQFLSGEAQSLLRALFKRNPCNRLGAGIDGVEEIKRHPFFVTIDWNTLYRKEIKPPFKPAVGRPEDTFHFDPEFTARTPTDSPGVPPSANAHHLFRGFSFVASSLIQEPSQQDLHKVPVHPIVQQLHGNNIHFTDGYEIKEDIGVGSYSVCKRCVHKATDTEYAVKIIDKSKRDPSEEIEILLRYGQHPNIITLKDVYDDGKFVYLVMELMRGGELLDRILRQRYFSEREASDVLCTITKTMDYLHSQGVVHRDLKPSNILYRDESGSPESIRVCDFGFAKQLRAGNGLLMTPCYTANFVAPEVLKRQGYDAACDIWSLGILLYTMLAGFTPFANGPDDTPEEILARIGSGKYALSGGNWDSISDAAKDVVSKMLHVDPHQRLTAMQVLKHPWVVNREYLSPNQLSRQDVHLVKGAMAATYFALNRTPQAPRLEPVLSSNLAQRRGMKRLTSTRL
The target of assay [2] is T2, RSK2 (Homo sapiens, UniProt P51812). The assay is described as above. The class given is biochemical. Details: purchased Reaction Biology Corporation (Malvern, PA), contract assay. Conditions: 10-dose, 3-fold serial dilution from 100 μM; 30 μM ATP; read-out: IC50 (M), kinase activity inhibition RSK2.
Target sequence in this assay (P51812 whole entry, the tested form may be a part, canonical isoform): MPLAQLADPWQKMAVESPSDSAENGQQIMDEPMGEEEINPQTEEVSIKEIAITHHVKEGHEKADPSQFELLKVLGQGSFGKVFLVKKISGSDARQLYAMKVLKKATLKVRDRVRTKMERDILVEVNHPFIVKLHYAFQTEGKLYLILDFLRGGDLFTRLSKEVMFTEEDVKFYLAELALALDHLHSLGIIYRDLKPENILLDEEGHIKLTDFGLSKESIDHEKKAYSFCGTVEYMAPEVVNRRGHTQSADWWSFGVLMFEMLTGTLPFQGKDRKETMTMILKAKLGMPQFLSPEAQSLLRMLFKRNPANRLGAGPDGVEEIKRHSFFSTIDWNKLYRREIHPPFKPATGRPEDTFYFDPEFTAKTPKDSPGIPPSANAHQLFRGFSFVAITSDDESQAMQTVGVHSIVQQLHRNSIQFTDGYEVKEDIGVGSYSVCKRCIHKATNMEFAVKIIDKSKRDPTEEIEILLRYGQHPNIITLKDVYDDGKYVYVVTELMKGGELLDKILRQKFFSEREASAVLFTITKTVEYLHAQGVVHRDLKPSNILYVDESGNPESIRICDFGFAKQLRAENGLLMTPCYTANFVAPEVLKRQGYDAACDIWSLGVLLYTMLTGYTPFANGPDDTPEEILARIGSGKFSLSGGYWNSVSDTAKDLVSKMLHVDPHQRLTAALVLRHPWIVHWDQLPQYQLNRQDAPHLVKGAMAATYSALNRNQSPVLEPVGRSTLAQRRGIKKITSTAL
The target in assay [3] is T1, RSK3. Put plainly: KINOMEscan competition binding assay. More on the design: RSK3 (Kinase Domain 1-N-terminal): Average Kd (nM): 5200; RSK3 (Kinase Domain 2-C-terminal): Average Kd (nM): 5800; purchased KINOMEscan screening platform (San Diego, CA), contract assay. Conditions: duplicate, top concentration 100 µM. The protocol: (§1) The KINOMEscan screening platform (San Diego, CA) was employed to quantitatively measure interactions between fisetin and RSK isoforms. Binding constants (Kds) were calculated by measuring the amount of kinase captured on solid support as a function of the test compound concentration, using the Hill equation. The Hill Slope was set to −1. Curves were fitted using a non-linear least square fit with the Levenberg-Marquardt algorithm.

For the next assay, the system named is RSK. Briefly: Western blot of RSK phosphorylation in A375 cells. The class given is cell-based, human. Conditions: fisetin 60 µM:24 h, FR180204 10 µM. The source says:
WM35 and A375 cells were obtained from ATCC (Manassas, VA), NCI/ADR-Res cells from NCI (Developmental Therapeutics Program, Frederick, MD) while 451Lu cells were provided by Dr. Meenhard Herlyn (Wistar Institute, PA). Authentication report was provided by ATCC and NCI for post-freeze viability, growth properties, morphology, mycoplasma contamination, species determination (cytochrome c oxidase I assay and STR analysis), sterility test and human pathogenic virus testing. Cells were frozen in aliquots in liquid nitrogen and cultured within six months. 451Lu cells were authenticated upon receipt using STR analysis and all cell lines are regularly tested for mycoplasma contamination using MycoAlert Mycoplasma Detection Kit from Lonza (Basel, Switzerland). WM35, A375 cells were cultured in DMEM, NCI/ADR-Res in RPMI and 451Lu in MEM with 10% FBS and 1% penicillin-streptomycin, at 37 °C with 5% CO2 in a humid environment. After treatment of cells with/without fisetin and/or inhibitors, whole cell lysates were prepared and western blot analysis was performed as described elsewhere.

A further assay has as its target T3, RSK2 binding to YB-1 (Homo sapiens, UniProt P51812).
T3 construct: recombinant human proteins [full length and HIS-tag]; (Life Technologies, Italy); His; purchased Life Technologies, Italy (RSK2); Abnova Corporation, Taiwan (YB-1)
Briefly: SPR competition assay, RSK2 pre-incubated with fisetin over immobilized YB-1. Conditions: RSK2 100 nM pre-incubated with fisetin 1 and 10 µM. How it is done: (§2) Binding experiments were performed using a Biacore T-200 instrument (Uppsala, Sweden) at 25 °C. 60 response units (RU) of the YB-1 human recombinant protein with GST-tag at N-terminal (51–139 aa, 35 kDa including GST tag, from Abnova Corporation, Taiwan) were directly immobilized on the EDC/NHS activated flow cell2 of the CM5 chip (GE certified) in water. The unoccupied sites were blocked with 1 M ethanol amine. The analytes RPS6KA1 (RSK1, 88.5 kDa) and RPS6KA3 (RSK2, 86.3 kDa) recombinant human proteins [full length and HIS-tag] (Life Technologies, Italy) were flown over the chip at variable concentrations in 10 mM sodium acetate buffer (pH 5.0), with flow rate of 5ul/min, at a single analyte concentration. Binding of analyte to the immobilized protein was monitored in real time to obtain on (ka) and off (kd) rates. The equilibrium constant (KD) was calculated from the observed ka and kd or by steady state kinetics as for the small molecules. Stocks were prepared in 100% DMSO, and further dilutions were made in assay buffer containing 10 mM HEPES buffer (pH 7.4), 150 mM NaCl, 3 mM EDTA, 0.05% P20 (polyoxyethylenesorbitan) and 0.1% BSA. Full kinetics analysis was performed at using analyte concentrations 50 nM (or 100 nM without BSA) to 0, run with serial dilutions, 50, 25, 12.5, 6.25, 3.125, 0 nM, and a flow rate of 30 ul/min. […]

In assay [4] the target is T2, RSK2. Briefly: KINOMEscan competition binding assay. More on the design: purchased KINOMEscan screening platform (San Diego, CA), contract assay. The protocol: as §1
The target of assay [5] is T4, RSK1 (Homo sapiens, UniProt Q15418). Briefly: biochemical. The protocol: In vitro kinase activity profiling of RSK isoforms was performed at Reaction Biology Corporation (Malvern, PA). Briefly, the specific kinase/substrate pair alongwith required cofactors was prepared in reaction buffer.
Target sequence in this assay (Q15418 whole entry, the tested form may be a part, canonical isoform): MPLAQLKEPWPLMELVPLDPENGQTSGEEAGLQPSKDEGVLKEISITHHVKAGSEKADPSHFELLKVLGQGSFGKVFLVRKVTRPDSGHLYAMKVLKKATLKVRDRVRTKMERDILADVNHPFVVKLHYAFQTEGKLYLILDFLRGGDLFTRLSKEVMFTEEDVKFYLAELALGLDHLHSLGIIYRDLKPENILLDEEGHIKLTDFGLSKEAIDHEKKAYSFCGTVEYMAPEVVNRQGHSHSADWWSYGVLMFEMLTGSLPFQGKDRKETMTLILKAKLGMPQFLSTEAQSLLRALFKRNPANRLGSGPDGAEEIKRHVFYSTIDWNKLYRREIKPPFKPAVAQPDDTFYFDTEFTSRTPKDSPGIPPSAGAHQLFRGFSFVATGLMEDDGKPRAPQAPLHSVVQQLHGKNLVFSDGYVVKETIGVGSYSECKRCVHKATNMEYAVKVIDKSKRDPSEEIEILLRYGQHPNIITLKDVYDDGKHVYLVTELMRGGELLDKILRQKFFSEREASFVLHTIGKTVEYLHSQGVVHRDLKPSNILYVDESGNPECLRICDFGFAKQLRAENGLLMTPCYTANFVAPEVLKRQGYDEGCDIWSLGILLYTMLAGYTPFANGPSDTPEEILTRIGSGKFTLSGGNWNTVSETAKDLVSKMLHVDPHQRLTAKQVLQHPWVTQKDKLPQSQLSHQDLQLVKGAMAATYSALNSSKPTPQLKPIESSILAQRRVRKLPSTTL
Assay [6] addresses T4, RSK1. Put plainly: KINOMEscan competition binding assay. Details: RSK1 (Kinase Domain 1-N-terminal): Average Kd (nM): 8100; RSK1 (Kinase Domain 2-C-terminal): Average Kd (nM): 2500; purchased KINOMEscan screening platform (San Diego, CA), contract assay. Conditions: duplicate, top concentration 100 µM. How it is done: as §1
The target in the next assay is ERK1 (Homo sapiens, UniProt P27361). Briefly: Radiometric in vitro kinase activity assay. Format: biochemical.
The next assay concerns the target ERK2 (Homo sapiens, UniProt P28482). Briefly: Radiometric in vitro kinase activity assay. Format: biochemical.
For assay [7], the target named is T5, YB-1 human recombinant protein (Homo sapiens, UniProt P67809).
T5 construct: (51–139 aa, 35 kDa including GST tag, from Abnova Corporation, Taiwan); purchased Abnova Corporation, Taiwan
Put plainly: SPR (Biacore) full kinetics, RSK analytes over immobilized YB-1. Conditions: without BSA; analyte 100-0 nM; 25 °C; read-out: KD for binding to immobilized YB-1. How it is done:
as §2
(SPR reads the build-up and loss of mass on a sensor chip optically.)

T3 sequence (P51812 whole entry): as the sequence (P51812 whole entry, the tested form may be a part, canonical isoform) above
ERK2, sequence (P28482 whole entry): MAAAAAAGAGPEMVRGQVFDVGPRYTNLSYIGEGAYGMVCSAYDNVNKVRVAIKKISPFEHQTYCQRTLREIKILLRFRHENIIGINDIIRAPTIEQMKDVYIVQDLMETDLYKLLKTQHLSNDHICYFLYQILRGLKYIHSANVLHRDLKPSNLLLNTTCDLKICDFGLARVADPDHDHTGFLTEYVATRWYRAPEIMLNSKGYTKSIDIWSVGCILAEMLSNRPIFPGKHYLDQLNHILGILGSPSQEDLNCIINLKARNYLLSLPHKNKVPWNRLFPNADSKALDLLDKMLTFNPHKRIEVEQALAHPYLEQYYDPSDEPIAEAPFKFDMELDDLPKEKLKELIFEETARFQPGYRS
ERK1, sequence (P27361 whole entry): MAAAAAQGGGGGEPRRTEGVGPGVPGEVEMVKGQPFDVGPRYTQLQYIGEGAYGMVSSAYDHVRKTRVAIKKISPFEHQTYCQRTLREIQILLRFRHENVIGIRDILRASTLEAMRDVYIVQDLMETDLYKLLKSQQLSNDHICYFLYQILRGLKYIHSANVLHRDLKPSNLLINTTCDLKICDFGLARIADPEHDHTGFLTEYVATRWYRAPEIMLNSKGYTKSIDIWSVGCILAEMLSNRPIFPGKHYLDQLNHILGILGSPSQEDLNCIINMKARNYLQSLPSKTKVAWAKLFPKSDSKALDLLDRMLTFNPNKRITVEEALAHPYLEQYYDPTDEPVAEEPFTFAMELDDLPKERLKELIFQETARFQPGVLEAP
T5 sequence (P67809 51-139): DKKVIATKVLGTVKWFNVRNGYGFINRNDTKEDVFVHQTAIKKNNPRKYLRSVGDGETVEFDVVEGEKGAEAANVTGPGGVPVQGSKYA

With `CC(C)CCN1c2nc(Nc3cc(F)c(O)c(F)c3)ncc2N(C)C(=O)C1C` (stereo not drawn) [BI-D1870, reference compound], the YB-1 expression entry in the assay on YB-1 (A375 cells, in comparison to fisetin (60 μM:24 h)) was “modest effect”.
Regarding `CCCS(=O)(=O)Nc1ccc(F)c(C(=O)c2c[nH]c3ncc(-c4ccc(Cl)cc4)cc23)c1F` [vemurafenib, reference compound], the average tumor volume in the assay on 451Lu melanoma cells came out at 641.7 mm^3.
As a reminder, the IC50 is the point on the concentration scale where inhibition reaches its midpoint. For orientation: Kd means the free concentration of one partner at which half of the binding sites on the other are occupied at equilibrium, for simple one-to-one binding. Consider `O=c1c(O)c(-c2ccc(O)c(O)c2)oc2cc(O)ccc12` [Fisetin, fisetin], for which the cell viability result in the assay on NCI/ADR-Res cells is recorded as “reduced viability”. The IC50 on RSK3 [1] is 8.91e-07 M; at RSK2 [2], 2.78e-06 M; on RSK1 [5] it was 3.79 µM; against ERK1, 8.5 µM; against ERK2, 9.88 µM. In addition, in the assay on YB-1 (A375 and 451Lu cells, 0–80 µM, 24 h), the “YB-1 phosphorylation and total protein levels” value is recorded as “dose-dependent decrease in YB-1 phosphorylation”. For the same molecule, the Kd on RSK3 [3] (C-terminal kinase domain, read-out: Average Kd, RSK3 (Kinase Domain 2-C-terminal)) is 5.8 µM; at RSK3 [3] (N-terminal kinase domain, read-out: Average Kd, RSK3 (Kinase Domain 1-N-terminal)), 5.2 µM; at RSK2 [4] (C-terminal kinase domain, duplicate, top concentration 100 µM, read-out: Average Kd, RSK2 (Kinase Domain 2-C-terminal)), 8.4 µM; on RSK2 [4] (N-terminal kinase domain, duplicate, top concentration 100 µM, read-out: Average Kd, RSK2 (Kinase Domain 1-N-terminal)) it was 0.05 µM; at RSK2 [4] (single replicate curve, C-terminal kinase domain, read-out: Kd, RSK2(Kin.Dom.2-C-terminal), Replicate ID = 1), 8.1 µM; at RSK1 [6] (C-terminal kinase domain, read-out: Average Kd, RSK1 (Kinase Domain 2-C-terminal)) it was 2.5 µM. The Kd at RSK1 [6] (N-terminal kinase domain, read-out: Average Kd, RSK1 (Kinase Domain 1-N-terminal)) is 8.1 µM. Further, the average tumor volume in the assay on 451Lu melanoma cells was 789.3 mm^3. For the same molecule, the “RSK phosphorylation at threonine359/serine363” value in the assay with RSK is “significant decrease”. Also, the “effect on binding of RSK2 to YB-1” value on RSK2 binding to YB-1 was “promote its binding to YB-1”.
On to `Nc1[nH]nc2nnc(-c3c(-c4ccccc4)nn4ccccc34)cc12` [FR180204, reference compound], for which the “RSK phosphorylation at threonine359/serine363” value with RSK is reported as “significant decrease”.
Take “RSK2: recombinant human protein RPS6KA3, full length, HIS-tag, 86.3 kDa; SPR analyte”: in assay [7], the Kd is 0.534 µM.
